Measured values published in ChEMBL document CHEMBL3879907, “8-azabicyclo[3.2.1]octane compounds as mu opioid receptor antagonists” (2014).

Legend:
[1] = biological target: Delta-type opioid receptor (Homo sapiens, UniProt P41143); assay: Displacement of [3H]-diprenorphine from human delta opioid receptor expressed in cell membranes
Mus musculus [2] = assay: Reversal of morphine-induced delayed gastrointestinal transit in sc dosed mouse compound administered prior to morphine challenge followed by non-nutritive, non-absorbable charcol meal administration by oral gavage at 5 mins post morphine challenge for 60 mins; type: functional; conditions: read-out: ID50 (the source's name)
Mus musculus [3] = assay: Reversal of morphine-induced delayed gastrointestinal transit in po dosed mouse compound administered prior to morphine challenge followed by non-nutritive, non-absorbable charcol meal administration by oral gavage at 5 mins post morphine challenge for 60 mins; type: functional; conditions: read-out: ID50 (the source's name)
[4] = biological target: Mu-type opioid receptor (Homo sapiens) (UniProt P35372); assay: Intrinsic activity at human mu opioid receptor expressed in CHOK1 cell membranes at 0.00001 to 20 uM after 30 mins by GTP-Eu nucleotide exchange assay relative to DAMGO; type: functional; conditions: CHO-K1
Mu-type opioid receptor (Homo sapiens), sequence (P35372 whole entry): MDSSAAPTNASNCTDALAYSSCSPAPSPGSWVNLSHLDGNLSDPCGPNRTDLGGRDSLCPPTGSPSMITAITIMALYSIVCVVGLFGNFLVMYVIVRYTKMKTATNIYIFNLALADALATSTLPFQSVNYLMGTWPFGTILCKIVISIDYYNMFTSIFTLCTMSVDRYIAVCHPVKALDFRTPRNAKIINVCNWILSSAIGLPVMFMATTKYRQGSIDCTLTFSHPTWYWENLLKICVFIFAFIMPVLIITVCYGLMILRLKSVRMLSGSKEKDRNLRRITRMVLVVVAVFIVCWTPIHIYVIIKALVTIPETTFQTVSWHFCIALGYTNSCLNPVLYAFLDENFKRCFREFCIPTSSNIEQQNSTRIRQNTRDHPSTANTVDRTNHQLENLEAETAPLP

[5] = biological target: Kappa-type opioid receptor (Cavia porcellus, UniProt P41144); assay: Displacement of [3H]-diprenorphine from guinea pig kappa opioid receptor expressed in CHOK1 cell membranes; conditions: cho-k1
Kappa-type opioid receptor, sequence (P41144 whole entry): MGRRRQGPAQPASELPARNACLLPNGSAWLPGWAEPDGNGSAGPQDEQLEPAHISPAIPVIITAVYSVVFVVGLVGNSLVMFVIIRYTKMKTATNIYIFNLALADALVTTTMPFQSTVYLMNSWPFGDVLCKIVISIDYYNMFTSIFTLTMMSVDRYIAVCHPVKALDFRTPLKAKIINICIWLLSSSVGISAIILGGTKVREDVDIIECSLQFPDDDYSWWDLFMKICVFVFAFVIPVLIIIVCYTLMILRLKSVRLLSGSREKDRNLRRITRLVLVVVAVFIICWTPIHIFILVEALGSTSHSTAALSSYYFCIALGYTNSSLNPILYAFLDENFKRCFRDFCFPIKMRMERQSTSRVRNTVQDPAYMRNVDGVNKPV

Delta-type opioid receptor, sequence (P41143 whole entry): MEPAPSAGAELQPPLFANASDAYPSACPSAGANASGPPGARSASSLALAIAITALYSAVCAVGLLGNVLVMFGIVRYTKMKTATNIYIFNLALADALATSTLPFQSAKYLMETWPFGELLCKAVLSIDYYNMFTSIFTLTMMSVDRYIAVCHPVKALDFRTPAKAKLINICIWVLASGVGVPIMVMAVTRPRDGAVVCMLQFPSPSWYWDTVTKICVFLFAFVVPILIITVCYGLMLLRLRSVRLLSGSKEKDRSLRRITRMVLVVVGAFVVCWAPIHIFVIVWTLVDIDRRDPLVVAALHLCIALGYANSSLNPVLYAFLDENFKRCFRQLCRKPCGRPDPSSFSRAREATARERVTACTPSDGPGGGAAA

Structure (SMILES)	pKi [1]	ED50 (Mus musculus [2])	ED50 (Mus musculus [3])	Intrinsic activity [4]	pKi [5]
NC(=O)c1cccc([C@H]2C[C@H]3CC[C@@H](C2)N3CCN(CCc2ccccc2)C(=O)CO)c1	7 to 10.5	0.1 to 3 mg/kg	0.1 to 3 mg/kg		
NC(=O)c1cccc([C@H]2C[C@H]3CC[C@@H](C2)N3CCN(CC2CCCCC2)C(=O)CO)c1		0.1 to 3 mg/kg	0.1 to 3 mg/kg	< 40%	
NC(=O)c1cccc([C@H]2C[C@H]3CC[C@@H](C2)N3CCN(CC2CCCCC2)C(=O)[C@@H](O)CO)c1.O=S(=O)(O)O [AXELOPRAN SULFATE]		0.1 to 3 mg/kg	0.1 to 3 mg/kg		
NC(=O)c1cccc([C@H]2C[C@H]3CC[C@@H](C2)N3CCN(CC2CCC(F)(F)CC2)C(=O)CO)c1	7 to 10.5	0.1 to 3 mg/kg	0.1 to 3 mg/kg	< 40%	7 to 10.5
NC(=O)c1cccc([C@H]2C[C@H]3CC[C@@H](C2)N3CCN(CC2CCCCC2)C(=O)[C@@H](O)CO)c1.O=C(O)C(=O)O	7 to 10.5	0.1 to 3 mg/kg	0.1 to 3 mg/kg		7 to 10.5
O=C(Cc1ccccc1)N(CCN1[C@@H]2CC[C@H]1C[C@@H](c1cccc(O)c1)C2)CC1CCCCC1	7 to 10.5			< 40%	7 to 10.5
CC(C)(C)C(=O)N(CCN1[C@@H]2CC[C@H]1C[C@@H](c1cccc(C(N)=O)c1)C2)CC1CCCC1.O=C(O)C(F)(F)F	7 to 10.5			< 40%	7 to 10.5
NC(=O)c1cccc([C@H]2C[C@H]3CC[C@@H](C2)N3CCN(Cc2c(F)cccc2F)C(=O)[C@@H](O)CO)c1.O=C(O)C(F)(F)F	7 to 10.5			< 40%	7 to 10.5
CCCCCNC(=O)N(CCN1[C@@H]2CC[C@H]1C[C@@H](c1cccc(O)c1)C2)CC1CCCCC1	7 to 10.5			< 40%	7 to 10.5
NC(=O)c1cccc([C@H]2C[C@H]3CC[C@@H](C2)N3CCN(Cc2ccccc2)C(=O)CO)c1	7 to 10.5	0.1 to 3 mg/kg	0.1 to 3 mg/kg		7 to 10.5
O=C(NCc1ccc(F)cc1)N(CCN1[C@@H]2CC[C@H]1C[C@@H](c1cccc(O)c1)C2)CC1CCCCC1	7 to 10.5			< 40%	7 to 10.5
CS(=O)(=O)CC(=O)N(CCN1[C@@H]2CC[C@H]1C[C@@H](c1cccc(C(N)=O)c1)C2)Cc1ccc(F)cc1.O=C(O)C(F)(F)F	7 to 10.5			< 40%	7 to 10.5
NC(=O)c1cccc([C@H]2C[C@H]3CC[C@@H](C2)N3CCN(CC(F)(F)c2ccccc2)C(=O)[C@@H](O)CO)c1.O=C(O)C(F)(F)F	7 to 10.5			< 40%	7 to 10.5
NC(=O)c1cccc([C@H]2C[C@H]3CC[C@@H](C2)N3CCN(CC2CCC2)C(=O)[C@@H](O)CO)c1.O=C(O)C(F)(F)F	7 to 10.5			< 40%	7 to 10.5
C[C@H](CN1[C@@H]2CC[C@H]1C[C@@H](c1cccc(O)c1)C2)N(Cc1ccccc1)C(=O)C1CCCC1	7 to 10.5			< 40%	7 to 10.5
NC(=O)c1cccc([C@H]2C[C@H]3CC[C@@H](C2)N3CCN(CC2CCCC2)C(=O)CO)c1.O=C(O)C(F)(F)F	7 to 10.5			< 40%	7 to 10.5
CS(=O)(=O)CC(=O)N(CCc1ccc(F)cc1)CCN1[C@@H]2CC[C@H]1C[C@@H](c1cccc(C(N)=O)c1)C2.O=C(O)C(F)(F)F	7 to 10.5			< 40%	7 to 10.5
NC(=O)c1cccc([C@H]2C[C@H]3CC[C@@H](C2)N3CCN(CCCc2ccccc2)C(=O)CO)c1	7 to 10.5			< 40%	7 to 10.5
CC(C)CC(=O)N(Cc1ccccc1)[C@H](C)CN1[C@@H]2CC[C@H]1C[C@@H](c1cccc(O)c1)C2	7 to 10.5			< 40%	7 to 10.5
CC(C)(O)C(=O)N(CCN1[C@@H]2CC[C@H]1C[C@@H](c1cccc(C(N)=O)c1)C2)Cc1c(F)cccc1F.O=C(O)C(F)(F)F	7 to 10.5			< 40%	7 to 10.5
CS(=O)(=O)CC(=O)N(CCN1[C@@H]2CC[C@H]1C[C@@H](c1cccc(O)c1)C2)Cc1c(F)cccc1F	7 to 10.5			< 40%	7 to 10.5

Structure (SMILES)	pKi [1]	ED50 (Mus musculus [2])	ED50 (Mus musculus [3])	Intrinsic activity [4]	pKi [5]
CS(=O)(=O)CC(=O)N(CCN1[C@@H]2CC[C@H]1C[C@@H](c1cccc(O)c1)C2)Cc1cccc(F)c1	7 to 10.5			< 40%	7 to 10.5
CN(C)CC(=O)N(CCN1[C@@H]2CC[C@H]1C[C@@H](c1cccc(C(N)=O)c1)C2)CC1CCCCC1	7 to 10.5			< 40%	7 to 10.5
NC(=O)c1cccc([C@H]2C[C@H]3CC[C@@H](C2)N3CCN(Cc2c(F)cccc2F)C(=O)[C@H]2CC[C@H](O)CC2)c1.O=C(O)C(F)(F)F	7 to 10.5			< 40%	7 to 10.5
CC(C)(O)C(=O)N(CCCN1[C@@H]2CC[C@H]1C[C@@H](c1cccc(C(N)=O)c1)C2)Cc1ccccc1.O=C(O)C(F)(F)F	7 to 10.5			< 40%	7 to 10.5
COCC(=O)N(CCN1[C@@H]2CC[C@H]1C[C@@H](c1cccc(C(N)=O)c1)C2)CC1CCCCC1.O=C(O)C(F)(F)F	7 to 10.5			< 40%	7 to 10.5
COC(=O)CCC(=O)N(CCN1[C@@H]2CC[C@H]1C[C@@H](c1cccc(O)c1)C2)CC1CCCCC1	7 to 10.5			< 40%	7 to 10.5
NC(=O)c1cccc([C@H]2C[C@H]3CC[C@@H](C2)N3CCCN(Cc2ccccc2)C(=O)[C@@H](O)CO)c1.O=C(O)C(F)(F)F	7 to 10.5			< 40%	7 to 10.5
NC(=O)c1cccc([C@H]2C[C@H]3CC[C@@H](C2)N3CCN(CC2CCCCC2)C(=O)NCc2ccc(F)cc2)c1	7 to 10.5			< 40%	7 to 10.5
CN[C@@H](CO)C(=O)N(CCN1[C@@H]2CC[C@H]1C[C@@H](c1cccc(C(N)=O)c1)C2)CC1CCCCC1.O=C(O)C(F)(F)F.O=C(O)C(F)(F)F	7 to 10.5			< 40%	7 to 10.5
O=C(CO)N(CCN1[C@@H]2CC[C@H]1C[C@@H](c1cccc(O)c1)C2)Cc1c(F)cccc1F	7 to 10.5			< 40%	7 to 10.5
NC(=O)c1cccc([C@H]2C[C@H]3CC[C@@H](C2)N3CCN(CC2CCCCC2)C(=O)[C@@H](O)CO)c1 [AXELOPRAN]		0.1 to 3 mg/kg	0.1 to 3 mg/kg		
NC(=O)c1cccc([C@H]2C[C@H]3CC[C@@H](C2)N3CCN(CC2CCCCC2)C(=O)Nc2ccc3c(c2)OCO3)c1	7 to 10.5			< 40%	7 to 10.5
CCCCCNC(=O)N(CCN1[C@@H]2CC[C@H]1C[C@@H](c1cccc(C(N)=O)c1)C2)CC1CCCCC1	7 to 10.5			< 40%	7 to 10.5
CC(=O)N(CCN1[C@@H]2CC[C@H]1C[C@@H](c1cccc(O)c1)C2)Cc1ccccc1	7 to 10.5			< 40%	7 to 10.5
CN(C)S(=O)(=O)N(CCN1[C@@H]2CC[C@H]1C[C@@H](c1cccc(C(N)=O)c1)C2)CC1CCCCC1.O=C(O)C(F)(F)F	7 to 10.5			< 40%	7 to 10.5
CC(C)(C)C(=O)N(CCN1[C@@H]2CC[C@H]1C[C@@H](c1cccc(C(N)=O)c1)C2)Cc1c(F)cccc1F.O=C(O)C(F)(F)F	7 to 10.5			< 40%	7 to 10.5
NC(=O)c1cccc([C@H]2C[C@H]3CC[C@@H](C2)N3CCN(CC2CCCCC2)C(=O)[C@H](O)CO)c1	7 to 10.5			< 40%	7 to 10.5
NC(=O)c1cccc([C@H]2C[C@H]3CC[C@@H](C2)N3CCCN(Cc2ccccc2)C(=O)[C@H](O)CO)c1.O=C(O)C(F)(F)F	7 to 10.5			< 40%	7 to 10.5
CCC(CC)C(=O)N(Cc1ccccc1)[C@H](C)CN1[C@@H]2CC[C@H]1C[C@@H](c1cccc(O)c1)C2	7 to 10.5			< 40%	7 to 10.5
O=C([C@@H](O)c1ccccc1)N(CCN1[C@@H]2CC[C@H]1C[C@@H](c1cccc(O)c1)C2)CC1CCCCC1	7 to 10.5			< 40%	7 to 10.5
